Laboratory results from PMC11275795 (bioRxiv, 2024).

Molecular target: FIGNL1∆N (Homo sapiens, UniProt Q6PIW4)
Conditions: activity enhanced by RAD51 or its N-terminal peptide

FIGNL1∆N, sequence (Q6PIW4 287-674): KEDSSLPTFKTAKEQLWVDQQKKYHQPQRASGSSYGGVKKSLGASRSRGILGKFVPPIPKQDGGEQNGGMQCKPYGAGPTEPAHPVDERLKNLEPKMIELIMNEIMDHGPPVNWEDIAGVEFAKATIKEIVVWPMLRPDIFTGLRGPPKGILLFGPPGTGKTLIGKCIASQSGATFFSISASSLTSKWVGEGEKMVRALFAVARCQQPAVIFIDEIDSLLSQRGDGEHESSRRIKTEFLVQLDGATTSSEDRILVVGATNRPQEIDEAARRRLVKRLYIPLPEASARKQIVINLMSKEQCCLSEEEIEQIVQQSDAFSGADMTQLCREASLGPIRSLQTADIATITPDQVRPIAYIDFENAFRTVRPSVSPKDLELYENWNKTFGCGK

Nc1ncnc2c1ncn2[C@@H]1O[C@H](COP(=O)(O)OP(=O)(O)OP(=O)(O)O)[C@@H](O)[C@H]1O [ATP]
ATPase assay: The ATPase activity of FIGNL1∆N is enhanced in the presence of RAD51
